This experiment concerns the target T1, human chemokine receptor CCR1 (Homo sapiens, UniProt P32246).
T1 construct: expressed in transfected cells; host or cells: HEK293T, transient
T1 sequence (P32246 1-355): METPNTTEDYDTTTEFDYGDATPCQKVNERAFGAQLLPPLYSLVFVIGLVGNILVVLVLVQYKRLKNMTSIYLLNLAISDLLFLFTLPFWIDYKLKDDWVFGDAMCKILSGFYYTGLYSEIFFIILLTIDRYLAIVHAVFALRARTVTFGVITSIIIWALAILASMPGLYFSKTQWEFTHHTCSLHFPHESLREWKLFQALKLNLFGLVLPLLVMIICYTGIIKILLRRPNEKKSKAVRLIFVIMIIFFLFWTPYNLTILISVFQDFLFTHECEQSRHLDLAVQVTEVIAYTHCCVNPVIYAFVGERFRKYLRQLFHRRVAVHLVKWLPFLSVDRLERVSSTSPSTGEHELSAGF
Description: Cellular NanoBiT miniGi recruitment assay. The format is cell-based. Conditions: in the presence of CCL5 (3 nM). Here is the method:
Technologies) for 20 min.
Cellular NanoBiT miniGi recruitment assay s: Chemokine-induced Gi recruitment to the chemokine receptor CCR1 was monitored using a nanoluciferase complementation -based assay (NanoBiT, Promega). 20 5 x 10^6 HEK293T cells were plated in 10 cm dishes and cultured for 24 h before transfection with vectors encoding for the human chemokine receptor CCR1 C-terminally fused with SmBiT and miniGi (mG, engineered GTPase domain of Gα subunit) N-terminally fused with LgBiT. 24 h after transfection cells were harvested, distributed into white 96 -well plates (5 × 10^4 cells per well) and incubated for 1 h at 37 °C with compound 23 at concentrations ranging from 10 nM to 100 µM. The endogenous chemokine ligand CCL5 (3 nM, for CCR1) was then added, and luminescence generated upon nanoluciferase complementation in the presence of coelenterazine H was measured with a Mithras LB940 luminometer (Berthold Technologies) for 20 min. […]
Finally, the top 5% of the identified hits were subsequently docked to a homology model of CCR1 (vide infra). After visual examination of the obtained binding modes 24 hit compounds were identified for further investigation .
Molecular docking: For the docking studies in the course of our virtual screening campaign, the CCR1 protein was […]
27, 28 CCR1 structure was optimized using the Quickprep and structure preparation wizard in MOE 24 using CHARMM27 forcefield. The protein was saved in mol2 format and loaded in GOLD.25, 26 The amino acids defining the IABS were listed in a text file to define the docking cavity. 50 GA runs were performed for docking CCR2-RA-[R] (4-[R]) and SN_12 (43), with the generated solutions clustered based on their RMSD with the threshold set to 0.75 Å using the complete linkage method. Docking runs were performed using ChemScore. […]

Each structure is given as a SMILES string. Like-named read-outs stand apart in the source and are kept apart here.

As for `O=C(C1=C(O)C(=O)N(CCc2ccc(O)cc2)C1c1ccc(F)cc1)c1ccccc1` (racemic) [compound 23], the IC50 by setting is: (read-out: IC50, miniGi recruitment) 68.9 µM; (read-out: pIC50, miniGi recruitment (converted)) 67.6 µM.

These data come from publication PMC11249626, “Fluorophore-Labeled Pyrrolones Targeting the Intracellular Allosteric Binding Site of the Chemokine Receptor CCR1” (ACS Pharmacology & Translational Science, 2024).
